Literature values, collected in PMC9851200, “Multiparameter phenotypic screening for endogenous TFEB and TFE3 translocation identifies novel chemical series modulating lysosome function” (Autophagy, 2022).

What was measured:
Parameters in all cases: method as in original PKIS2 published data
[1] = target: T1, kinases (KINOMEscan panel) (Homo sapiens, UniProt Q96BR1); conditions: kinase SGK3; Published KINOMEscan; ref original PKIS2 published data; cited from earlier work
T1 sequence (Q96BR1 1-496): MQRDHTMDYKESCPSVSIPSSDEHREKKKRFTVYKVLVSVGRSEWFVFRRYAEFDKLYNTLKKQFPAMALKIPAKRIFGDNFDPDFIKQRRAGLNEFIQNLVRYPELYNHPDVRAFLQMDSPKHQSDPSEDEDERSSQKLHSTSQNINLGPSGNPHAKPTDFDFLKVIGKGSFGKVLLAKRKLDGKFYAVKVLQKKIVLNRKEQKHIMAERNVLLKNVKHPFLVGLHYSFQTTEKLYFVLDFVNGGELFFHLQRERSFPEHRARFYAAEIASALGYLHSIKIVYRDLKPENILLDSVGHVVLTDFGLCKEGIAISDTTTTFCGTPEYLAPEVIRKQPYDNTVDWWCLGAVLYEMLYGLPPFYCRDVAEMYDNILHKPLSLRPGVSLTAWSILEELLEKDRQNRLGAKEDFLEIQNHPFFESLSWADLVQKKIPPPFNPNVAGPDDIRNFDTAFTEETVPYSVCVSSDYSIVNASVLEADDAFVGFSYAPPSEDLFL

[2] = target: kinases (KINOMEscan panel) (Homo sapiens, UniProt Q04912); conditions: MST1R; Published KINOMEscan; ref original PKIS2 published data; cited from earlier work
Sequence of kinases (KINOMEscan panel) (Homo sapiens, UniProt Q04912) (Q04912 25-1400): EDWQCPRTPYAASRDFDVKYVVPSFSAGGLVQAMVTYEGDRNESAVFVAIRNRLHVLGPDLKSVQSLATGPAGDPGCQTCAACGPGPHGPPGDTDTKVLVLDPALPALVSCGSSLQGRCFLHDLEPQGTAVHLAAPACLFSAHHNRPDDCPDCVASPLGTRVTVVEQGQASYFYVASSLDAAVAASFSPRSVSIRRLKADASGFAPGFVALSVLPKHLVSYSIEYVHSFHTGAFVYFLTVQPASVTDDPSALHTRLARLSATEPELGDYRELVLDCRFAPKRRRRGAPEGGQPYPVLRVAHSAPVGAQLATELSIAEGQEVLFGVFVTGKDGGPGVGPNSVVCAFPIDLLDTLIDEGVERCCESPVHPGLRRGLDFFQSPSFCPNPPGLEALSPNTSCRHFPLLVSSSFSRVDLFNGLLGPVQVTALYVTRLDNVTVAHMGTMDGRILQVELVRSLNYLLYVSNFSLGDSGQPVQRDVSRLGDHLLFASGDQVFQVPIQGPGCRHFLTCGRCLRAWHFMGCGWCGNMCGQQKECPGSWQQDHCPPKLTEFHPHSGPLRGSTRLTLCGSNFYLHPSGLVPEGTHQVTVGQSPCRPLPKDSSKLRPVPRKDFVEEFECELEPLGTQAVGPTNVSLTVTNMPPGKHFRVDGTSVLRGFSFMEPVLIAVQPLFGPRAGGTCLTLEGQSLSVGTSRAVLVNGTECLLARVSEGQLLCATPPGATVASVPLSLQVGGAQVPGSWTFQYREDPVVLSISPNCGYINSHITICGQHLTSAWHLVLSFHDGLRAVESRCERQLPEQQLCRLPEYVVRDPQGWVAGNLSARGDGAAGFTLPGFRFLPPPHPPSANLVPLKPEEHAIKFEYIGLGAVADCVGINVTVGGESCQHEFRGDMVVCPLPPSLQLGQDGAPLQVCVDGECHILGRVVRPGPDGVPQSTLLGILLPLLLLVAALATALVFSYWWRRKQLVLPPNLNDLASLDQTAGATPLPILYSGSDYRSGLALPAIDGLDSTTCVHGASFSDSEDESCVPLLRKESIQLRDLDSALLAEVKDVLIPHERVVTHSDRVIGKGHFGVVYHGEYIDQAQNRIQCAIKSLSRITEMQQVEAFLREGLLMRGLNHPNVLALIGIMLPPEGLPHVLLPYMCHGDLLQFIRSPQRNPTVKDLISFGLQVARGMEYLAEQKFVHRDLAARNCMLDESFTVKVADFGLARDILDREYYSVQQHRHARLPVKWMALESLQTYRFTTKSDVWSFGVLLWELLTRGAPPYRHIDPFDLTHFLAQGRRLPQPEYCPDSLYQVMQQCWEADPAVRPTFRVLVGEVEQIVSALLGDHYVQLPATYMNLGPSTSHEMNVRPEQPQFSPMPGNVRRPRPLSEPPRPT

[3] = target: kinases (KINOMEscan panel) (Homo sapiens, UniProt P15056); conditions: BRAF; Published KINOMEscan; ref original PKIS2 published data; cited from earlier work
Sequence of kinases (KINOMEscan panel) (Homo sapiens, UniProt P15056) (P15056 whole entry): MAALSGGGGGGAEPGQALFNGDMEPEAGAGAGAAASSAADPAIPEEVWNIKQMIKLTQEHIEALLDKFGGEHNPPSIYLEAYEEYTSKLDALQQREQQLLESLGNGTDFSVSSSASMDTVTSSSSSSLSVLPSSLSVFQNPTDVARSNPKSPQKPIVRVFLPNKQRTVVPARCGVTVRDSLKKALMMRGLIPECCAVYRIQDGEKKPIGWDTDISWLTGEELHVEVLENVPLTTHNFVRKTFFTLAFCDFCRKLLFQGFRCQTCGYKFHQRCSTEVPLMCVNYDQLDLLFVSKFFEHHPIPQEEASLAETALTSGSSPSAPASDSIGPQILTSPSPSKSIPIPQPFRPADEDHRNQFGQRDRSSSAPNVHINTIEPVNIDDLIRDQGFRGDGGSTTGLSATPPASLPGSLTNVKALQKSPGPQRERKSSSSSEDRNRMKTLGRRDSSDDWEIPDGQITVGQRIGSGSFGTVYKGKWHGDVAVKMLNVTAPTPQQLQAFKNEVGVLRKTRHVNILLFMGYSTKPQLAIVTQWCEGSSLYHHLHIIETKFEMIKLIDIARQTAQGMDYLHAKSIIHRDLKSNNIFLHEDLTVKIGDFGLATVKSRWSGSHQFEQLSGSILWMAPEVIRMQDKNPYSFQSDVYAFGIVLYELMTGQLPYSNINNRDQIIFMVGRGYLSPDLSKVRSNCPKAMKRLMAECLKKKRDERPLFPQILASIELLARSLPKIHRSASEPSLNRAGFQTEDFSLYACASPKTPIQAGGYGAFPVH

[4] = target: kinases (KINOMEscan panel) (Homo sapiens, UniProt Q9UIK4); conditions: kinase DAPK2; Published KINOMEscan; ref original PKIS2 published data; cited from earlier work
Sequence of kinases (KINOMEscan panel) (Homo sapiens, UniProt Q9UIK4) (Q9UIK4 whole entry): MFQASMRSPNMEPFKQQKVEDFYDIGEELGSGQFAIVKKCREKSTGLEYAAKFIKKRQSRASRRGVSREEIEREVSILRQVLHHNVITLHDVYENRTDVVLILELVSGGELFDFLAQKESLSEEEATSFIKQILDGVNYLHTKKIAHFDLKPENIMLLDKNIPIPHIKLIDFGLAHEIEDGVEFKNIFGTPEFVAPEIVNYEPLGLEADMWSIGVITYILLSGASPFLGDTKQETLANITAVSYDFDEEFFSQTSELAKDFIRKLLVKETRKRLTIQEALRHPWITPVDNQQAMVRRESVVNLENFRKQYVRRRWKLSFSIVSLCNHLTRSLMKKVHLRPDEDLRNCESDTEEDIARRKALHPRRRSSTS

[5] = target: kinases (KINOMEscan panel) (Homo sapiens, UniProt Q9BUB5); conditions: Published KINOMEscan; ref original PKIS2 published data; cited from earlier work
Sequence of kinases (KINOMEscan panel) (Homo sapiens, UniProt Q9BUB5) (Q9BUB5 whole entry): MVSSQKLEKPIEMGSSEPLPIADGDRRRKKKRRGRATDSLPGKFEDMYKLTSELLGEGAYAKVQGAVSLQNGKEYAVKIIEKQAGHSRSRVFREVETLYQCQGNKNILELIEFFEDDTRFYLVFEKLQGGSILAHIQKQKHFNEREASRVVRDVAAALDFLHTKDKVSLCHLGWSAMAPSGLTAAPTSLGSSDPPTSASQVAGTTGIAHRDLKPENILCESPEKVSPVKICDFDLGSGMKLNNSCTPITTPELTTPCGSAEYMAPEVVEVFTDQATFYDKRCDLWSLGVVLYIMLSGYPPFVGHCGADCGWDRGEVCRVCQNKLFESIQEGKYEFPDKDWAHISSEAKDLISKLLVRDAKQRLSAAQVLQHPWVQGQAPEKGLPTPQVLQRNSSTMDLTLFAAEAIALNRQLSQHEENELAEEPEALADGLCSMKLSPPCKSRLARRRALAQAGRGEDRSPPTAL

[6] = target: kinases (KINOMEscan panel) (Homo sapiens, UniProt Q9H0K1); conditions: kinase SIK2; Published KINOMEscan; ref original PKIS2 published data; cited from earlier work
[7] = target: T2, kinases (KINOMEscan panel) (Homo sapiens, UniProt Q9UF33); conditions: kinase EPHA6; Published KINOMEscan; ref original PKIS2 published data; cited from earlier work
T2 sequence (Q9UF33 23-1036): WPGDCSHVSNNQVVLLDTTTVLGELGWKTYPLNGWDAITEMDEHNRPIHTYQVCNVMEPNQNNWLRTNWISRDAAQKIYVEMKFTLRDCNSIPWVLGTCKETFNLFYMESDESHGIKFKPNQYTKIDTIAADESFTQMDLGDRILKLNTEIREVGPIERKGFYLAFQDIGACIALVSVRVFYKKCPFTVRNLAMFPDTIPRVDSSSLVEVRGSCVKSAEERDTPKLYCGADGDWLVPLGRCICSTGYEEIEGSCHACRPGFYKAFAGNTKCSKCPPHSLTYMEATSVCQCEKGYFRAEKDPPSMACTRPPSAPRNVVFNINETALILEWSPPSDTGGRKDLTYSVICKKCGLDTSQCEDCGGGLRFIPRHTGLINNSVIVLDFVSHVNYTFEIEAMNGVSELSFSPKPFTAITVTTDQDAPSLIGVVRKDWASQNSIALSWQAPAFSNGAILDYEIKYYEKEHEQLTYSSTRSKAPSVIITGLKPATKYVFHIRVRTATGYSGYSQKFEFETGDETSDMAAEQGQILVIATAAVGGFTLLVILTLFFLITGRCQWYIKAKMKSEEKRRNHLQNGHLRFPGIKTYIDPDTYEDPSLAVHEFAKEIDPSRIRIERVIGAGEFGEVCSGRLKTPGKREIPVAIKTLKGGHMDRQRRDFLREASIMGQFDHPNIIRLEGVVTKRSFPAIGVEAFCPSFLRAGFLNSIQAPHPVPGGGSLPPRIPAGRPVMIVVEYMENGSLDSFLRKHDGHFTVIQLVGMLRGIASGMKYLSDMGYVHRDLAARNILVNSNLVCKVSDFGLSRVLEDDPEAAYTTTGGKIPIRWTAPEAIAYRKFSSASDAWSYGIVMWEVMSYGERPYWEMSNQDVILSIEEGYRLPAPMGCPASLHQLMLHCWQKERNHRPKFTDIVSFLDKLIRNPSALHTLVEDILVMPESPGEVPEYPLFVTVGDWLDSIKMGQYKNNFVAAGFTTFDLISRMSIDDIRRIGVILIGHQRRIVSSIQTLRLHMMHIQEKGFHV

[8] = target: kinases (KINOMEscan panel) (Homo sapiens, UniProt P35916); conditions: FLT4; Published KINOMEscan; ref original PKIS2 published data; cited from earlier work
Sequence of kinases (KINOMEscan panel) (Homo sapiens, UniProt P35916) (P35916 25-1363): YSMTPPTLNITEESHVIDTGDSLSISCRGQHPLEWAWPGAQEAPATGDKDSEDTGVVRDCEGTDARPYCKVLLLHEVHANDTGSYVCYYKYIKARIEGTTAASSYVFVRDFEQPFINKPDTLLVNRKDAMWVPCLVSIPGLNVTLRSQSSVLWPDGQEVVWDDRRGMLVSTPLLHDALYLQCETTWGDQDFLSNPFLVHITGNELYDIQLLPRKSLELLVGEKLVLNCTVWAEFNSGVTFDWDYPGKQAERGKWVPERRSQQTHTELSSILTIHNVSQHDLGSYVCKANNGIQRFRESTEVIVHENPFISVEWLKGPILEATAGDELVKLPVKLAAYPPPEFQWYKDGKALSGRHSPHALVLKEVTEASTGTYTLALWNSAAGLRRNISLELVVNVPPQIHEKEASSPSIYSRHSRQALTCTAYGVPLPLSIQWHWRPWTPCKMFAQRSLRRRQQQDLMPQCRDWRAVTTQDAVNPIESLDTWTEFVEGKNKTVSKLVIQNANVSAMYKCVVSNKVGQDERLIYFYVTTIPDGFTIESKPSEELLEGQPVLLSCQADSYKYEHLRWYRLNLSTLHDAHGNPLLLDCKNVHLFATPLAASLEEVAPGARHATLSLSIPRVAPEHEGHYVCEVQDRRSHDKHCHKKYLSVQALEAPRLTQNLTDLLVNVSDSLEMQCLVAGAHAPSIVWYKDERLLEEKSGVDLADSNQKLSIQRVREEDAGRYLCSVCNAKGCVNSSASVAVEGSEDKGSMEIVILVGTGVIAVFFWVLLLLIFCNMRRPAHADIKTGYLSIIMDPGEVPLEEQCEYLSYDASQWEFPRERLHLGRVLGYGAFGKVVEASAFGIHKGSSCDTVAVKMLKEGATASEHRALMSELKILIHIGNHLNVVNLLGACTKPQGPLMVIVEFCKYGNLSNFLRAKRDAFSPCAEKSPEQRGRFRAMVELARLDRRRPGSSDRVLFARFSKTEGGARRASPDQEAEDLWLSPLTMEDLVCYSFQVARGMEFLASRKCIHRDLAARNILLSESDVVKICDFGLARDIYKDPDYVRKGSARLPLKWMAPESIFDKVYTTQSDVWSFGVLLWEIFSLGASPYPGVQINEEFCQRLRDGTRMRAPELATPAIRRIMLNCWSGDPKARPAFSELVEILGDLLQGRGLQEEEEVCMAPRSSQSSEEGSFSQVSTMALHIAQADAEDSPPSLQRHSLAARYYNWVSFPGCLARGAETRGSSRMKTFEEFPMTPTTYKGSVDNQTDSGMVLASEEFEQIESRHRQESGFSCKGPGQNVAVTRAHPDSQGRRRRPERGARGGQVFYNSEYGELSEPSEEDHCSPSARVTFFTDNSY

Structure (SMILES): Cc1cccc(-c2nc(Nc3ccncc3)c3ccccc3n2)n1 [NK215]
- KINOMEscan SGK3 [1]: 0
- KINOMEscan MST1R [2]: 0
- KINOMEscan BRAF [3]: 0
- KINOMEscan DAPK2 [4]: 7
- KINOMEscan MKNK1 [5]: 0
- KINOMEscan SIK2 [6]: 0
- KINOMEscan EPHA6 [7]: 0
- KINOMEscan FLT4 [8]: 1
